Data: patent US8034812B2, “Imidazopyridazine derivative having kinase inhibitory activity and pharmaceutical agent thereof” (Takeda Pharmaceutical Company Limited, priority 2006, dated 2011)

Columns and labels:
[1] = target: T1, BRAF (V600E) enzyme (Homo sapiens, UniProt P15056, V600E); assay: Determination of BRAF (V600E) kinase inhibitory activity ([γ-32P]ATP, GST-MEK1 (K96R) substrate); type: biochemical; conditions: read-out: BRAF (V600E) kinase inhibitory rate
T1 construct: area encoding the BRAF kinase domain region, so that the protein contains an N-terminal Flag; made in house; host or cells: SF-21 insect cells, recombinant baculovirus BAC-V600E
Protocol: Human BRAF gene was cloned by PCR using human Testis cDNA library (Clontech) as a template. The primer used for PCR was prepared from base sequence (Genbank Accession NM_004333) information of BRAF gene by adding a base sequence encoding flag peptide and a recognition sequence of the restriction enzyme to area encoding the BRAF kinase domain region, so that the protein contains an N-terminal Flag. The primer base sequence is shown below.
The PCR reaction was conducted using Pyrobest (Takara Shuzo Co., Ltd). The obtained PCR product was electrophoresed on agarose gel (1%), the DNA fragment amplified by PCR was recovered from the gel, and then digested with restriction enzymes EcoRI and SalI. The DNA treated with the restriction enzymes was electrophoresed on agarose gel (1%), and the obtained DNA fragment was recovered and ligated to plasmid pFASTBAC1 (Invitrogen) digested with restriction enzymes EcoRI and SalI to give expression plasmid pFB-BRAF, and the base sequence of the insert fragment was confirmed. In addition, mutation was introduced into V600E using a Quick change Site Directed Mutagenesis kit (Stratagene). The nucleotide sequences of the primers used are shown in the following.
SF-21 cells were sown at 1×10^6 cells/mL to Sf-900II SFM medium (1 L, Invitrogen) containing 10% fetal bovine serum (Trace), 50 mg/L Gentamicin (Invitrogen) and 0.1% Pluronic F-68 (Invitrogen), and shaking culture was performed using a 2 L volume Erlenmeyer flask at 27° C., 100 rpm. After culturing for 24 hrs, recombinant baculovirus BAC-V600E (13.4 mL) was added to the mixture, and the mixture was further cultured for 3 days. The culture medium was centrifuged at 2,000 rpm for 5 min to give virus-infected cells. The infected cells were washed with a phosphate buffered saline (Invitrogen), centrifuged under the same conditions, and the cells were preserved at −80° C. The cryopreserved cells were thawed in ice, suspended in buffer A (50 mM Tris buffer (30 mL, pH 7.4) containing 20% glycerol, 0.15 M NaCl) supplemented with Complete Protease Inhibitor (Boehringer), and ruptured 3 times with a Polytron homogenizer (Kinematica) at 20,000 rpm for 30 sec. The ruptured medium was clarified by centrifugation at 40,000 rpm for 30 min and filtered with a 0.45 μm filter. The filtrate was passed through a column packed with Anti-FLAG M2 Affinity Gel (4 mL, Sigma) at a flow rate of about 0.5 mL/min. The column was washed with buffer A, and eluted with buffer A containing 100 μg/mL of FLAG peptide. The buffer of this concentrate was exchanged using NAP25 column (Amersham Bioscience) equilibrated with buffer A and the fractions were cryopreserved at −80° C.
A test compound (2.5 μl) dissolved in dimethyl sulfoxide (DMSO) was added to 37.5 μl of a reaction solution (25 mM HEPES (pH 7.5), 10 mM magnesium acetate, 1 mM dithiothreitol) containing BRAF (V600E) enzyme (30 ng) and recombinant type protein GST-MEK1 (K96R) 250 ng, and the mixture was incubated at room temperature for 10 min. ATP solution (10 μl) (2.5 μM ATP, 0.1 μCi [γ-^32P]ATP) was added to the obtained mixture, and the mixture was reacted at room temperature for 20 min. The reaction was quenched by adding 50 μL of ice-cooled 20% trichloroacetic acid (Wako Pure Chemical Industries, Ltd.). The reaction solution was allowed to stand at 4° C. for 30 min, and the acid-precipitable fraction was transferred to GF/C filter plate (Millipore Corporation) using cell harvester (PerkinElmer). The plate was dried at 45° C. for 60 min, and 40 μL of MicroScinti 0 (PerkinElmer) was added thereto. The radioactivity was measured using TopCount (PerkinElmer). The kinase inhibitory rate (%) of the test compound was calculated by the following formula: Inhibitory rate(%)=(1−(count of test compound−blank)÷(control−blank))×100
The count of the solution reacted without addition of the compound was used as a “control”, and the count of the solution without the compound and enzyme was used as a “blank”. […]

[2] = target: T2, VEGFR2 intracellular domain protein (Homo sapiens, UniProt P35968); assay: Determination of vascular endothelial growth factor receptor 2 (VEGFR2) kinase inhibitory activity (AlphaScreen); type: biochemical; conditions: read-out: VEGFR2 kinase inhibitory rate
T2 construct: made in house; host or cells: SF-21 insect cells, recombinant baculovirus BAC-VEGFR2
Protocol: Human vascular endothelial growth factor receptor 2 (hereinafter to be referred to as VEGFR2) gene was cloned by PCR using cDNA Libraries Human Placenta (Clontech) as a template. The primer used for PCR was prepared from base sequence (Genbank Accession AF035121) information of VEGFR2 gene by adding a base sequence encoding flag peptide and a recognition sequence of the restriction enzyme to a base sequence (2671-4374 of Genbank Accession AF035121) encoding the VEGFR2 intracellular domain region, so that the protein contains an N-terminal Flag tag. The primer base sequence is shown below.
SF-21 cells were sown at 1×10^6 cells/mL to Sf-900II SFM medium (1 L, Invitrogen) containing 10% fetal bovine serum (trace), 50 mg/L Gentamicin (Invitrogen) and 0.1% Pluronic F-68 (Invitrogen), and shaking culture was performed using a 2 L volume Erlenmeyer flask at 27° C., 100 rpm. After culturing for 24 hrs, recombinant baculovirus BAC-VEGFR2 (13.4 mL) was added to the mixture, and the mixture was further cultured for 3 days. The culture medium was centrifuged at 2,000 rpm for 5 min to give virus-infected cells. The infected cells were washed with a phosphate buffered saline (Invitrogen), centrifuged under the same conditions, and the cells were preserved at −80° C. The cryopreserved cells were thawed in ice, suspended in buffer A (50 mM Tris buffer (30 mL, pH 7.4) containing 20% glycerol, 0.15 M NaCl) supplemented with Complete Protease Inhibitor (Boehringer), and ruptured 3 times with a Polytron homogenizer (Kinematica) at 20,000 rpm for 30 sec. The ruptured medium was clarified by centrifugation at 40,000 rpm for 30 min and filtered with a 0.45 μm filter. The filtrate was passed through a column packed with Anti-FLAG M2 Affinity Gel (4 mL, Sigma) at a flow rate of about 0.5 mL/min. The column was washed with buffer A, and eluted with buffer A containing 100 μg/mL of FLAG peptide. The eluate was concentrated with Vivaspin 20 (Vivascience) having a molecular weight cut off of 30K. The buffer of this concentrate was exchanged using NAP™ 25 column (Amersham Bioscience) equilibrated with buffer A. The fractions containing intracellular domain protein of VEGFR2 were collected, glycerol was added to the final concentration of 50% and cryopreserved at −80° C.
A test compound dissolved in dimethyl sulfoxide (DMSO) was diluted with a buffer (50 mM Tris-HCl (pH 7.5), 5 mM MgCl2, 5 mM MnCl2, 2 mM dithiothreitol, 0.01% Tween-20). To this compound solution (5 μL) was added a buffer (10 μL) containing 50 ng/mL of VEGFR2 intracellular domain protein and 250 ng/mL of biotin labeled polypeptide biotinyl-poly-Glu:Tyr (4:1) (CIS bio International). To the obtained mixture was added a buffer (10 μL) containing ATP (25 μM), the mixture was allowed to react at 25° C. for 5 min and the reaction was quenched with 25 μL of a stop solution (100 mM EDTA disodium salt, 62.5 mM HEPES buffer (pH 7.4), 250 mM NaCl, 0.1% bovine serum albumin, 10 μg/mL AlphaScreen assay streptavidin donor beads (Streptavidin Donor beads: PerkinElmer), 10 μg/mL AlphaScreen assay anti-phosphotyrosine recognition antibody PY-100 binding acceptor beads (Anti-phosphotyrosine (P-Tyr-100) Acceptor beads: PerkinElmer)). The reaction solution was allowed to stand at 25° C. for 16 hrs, and the wells were counted using a plate reader Fusion™ (PerkinElmer). The kinase inhibitory rate (%) of the test compound was calculated by the following formula: Inhibitory rate(%)=(1−(count of test compound−blank)÷(control−blank))×100

[3] = tested on: Human umbilical vein-derived vascular endothelial cells (HUVEC); assay: Vascular endothelial cell growth inhibitory test (VEGF-stimulated HUVEC, XTT); type: cell-based; conditions: 120 h, 5 days of culture
Protocol: To be specific, HUVEC was suspended in a vascular endothelial cell medium containing the aforementioned 5% bovine fetal serum and plated on a 96 well flat bottom plate by 50 μL (3000 cells) each well. After culture overnight, various concentrations of the test substance and 120 ng/mL of vascular endothelial growth factor (VEGF) were dissolved in a vascular endothelial cell medium containing 5% bovine fetal serum and added to each well by 50 μL. After 5 days of culture, a XTT reagent (Wako Pure Chemical Industries, Ltd.) was added to each well by 10 μL, and the mixture was reacted in an incubator at 37° C., 5% carbon dioxide for 2-3 hr. The absorbance at 450 nm was measured by a microtiter plate reader and the cell growth inhibitory activity was determined.

[4] = target: T3, PDGFRα intracellular domain protein (Homo sapiens, UniProt P16234); assay: Determination of platelet-derived growth factor receptor α (PDGFRα) kinase inhibitory activity (AlphaScreen); type: biochemical
T3 construct: 125 ng/ml of PDGFRα intracellular domain protein (UPSTATE); purchased UPSTATE
Protocol: (§1) A test compound dissolved in dimethyl sulfoxide (DMSO) was diluted with a buffer (50 mM Tris-HCl (pH 7.5), 5 mM MgCl2, 5 mM MnCl2, 2 mM dithiothreitol, 0.01% Tween-20). To this compound solution (5 μL) was added a buffer (10 μL) containing 125 ng/ml of PDGFRα intracellular domain protein (UPSTATE) and 250 ng/mL of biotin labeled polypeptide biotinyl-poly-Glu:Tyr (4:1) (CIS bio International). At 5 min after mixing kinase enzyme and the compound and biotin labeled polypeptide, to the obtained mixture was added a buffer (10 μL) containing ATP (25 μM), the mixture was allowed to react at 25° C. for 30 min and the reaction was quenched with 25 μL of a stop solution (100 mM EDTA disodium salt, 62.5 mM HEPES buffer (pH 7.4), 250 mM NaCl, 0.1% bovine serum albumin, 10 μg/mL AlphaScreen assay streptavidin donor beads (Streptavidin Donor beads: PerkinElmer), 10 μg/mL AlphaScreen assay anti-phosphotyrosine recognition antibody PT-66 binding acceptor beads (Anti-phosphotyrosine (P-Tyr-66) Acceptor beads: PerkinElmer)). The reaction solution was allowed to stand at 25° C. for 16 hrs, and the wells were counted using a plate reader Fusion™ (PerkinElmer). The kinase inhibitory rate (%) of the test compound was calculated by the following formula: Inhibitory rate(%)=(1−(count of test compound−blank)÷(control−blank))×100
(§2) The count of the solution reacted without addition of the compound was used as a “control”, and the count of the solution without the compound and ATP was used as a “blank”.

[5] = target: T4, PDGFRβ intracellular domain protein (Homo sapiens, UniProt P09619); assay: Determination of platelet-derived growth factor receptor β (PDGFRβ) kinase inhibitory activity (AlphaScreen); type: biochemical
T4 construct: 125 ng/ml of PDGFRβ intracellular domain protein (UPSTATE); purchased UPSTATE
Protocol: as §1, with “of PDGFRβ” for “of PDGFRα”, “Donor Beads:” for “Donor beads:”, “test compound[…])÷(control−blank))×100” for “test compound−blank)÷(control−blank))×100”
as §2

T2 sequence (P35968 786-1356 limits assumed): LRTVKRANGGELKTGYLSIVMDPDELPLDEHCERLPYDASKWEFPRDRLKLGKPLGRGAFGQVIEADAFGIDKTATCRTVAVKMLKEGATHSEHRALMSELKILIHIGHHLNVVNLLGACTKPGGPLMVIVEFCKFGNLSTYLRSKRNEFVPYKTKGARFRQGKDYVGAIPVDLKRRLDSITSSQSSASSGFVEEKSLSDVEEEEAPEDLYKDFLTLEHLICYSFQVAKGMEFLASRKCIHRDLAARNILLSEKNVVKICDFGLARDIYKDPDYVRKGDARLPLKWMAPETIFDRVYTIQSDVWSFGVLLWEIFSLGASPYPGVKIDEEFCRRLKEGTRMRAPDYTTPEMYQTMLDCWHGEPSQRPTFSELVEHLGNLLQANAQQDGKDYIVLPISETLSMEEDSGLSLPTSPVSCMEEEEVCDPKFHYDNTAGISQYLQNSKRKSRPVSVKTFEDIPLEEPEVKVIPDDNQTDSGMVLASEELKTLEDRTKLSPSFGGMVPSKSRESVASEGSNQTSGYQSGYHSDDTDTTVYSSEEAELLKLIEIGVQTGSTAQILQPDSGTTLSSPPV
T3 sequence (P16234 550-1089 limits assumed): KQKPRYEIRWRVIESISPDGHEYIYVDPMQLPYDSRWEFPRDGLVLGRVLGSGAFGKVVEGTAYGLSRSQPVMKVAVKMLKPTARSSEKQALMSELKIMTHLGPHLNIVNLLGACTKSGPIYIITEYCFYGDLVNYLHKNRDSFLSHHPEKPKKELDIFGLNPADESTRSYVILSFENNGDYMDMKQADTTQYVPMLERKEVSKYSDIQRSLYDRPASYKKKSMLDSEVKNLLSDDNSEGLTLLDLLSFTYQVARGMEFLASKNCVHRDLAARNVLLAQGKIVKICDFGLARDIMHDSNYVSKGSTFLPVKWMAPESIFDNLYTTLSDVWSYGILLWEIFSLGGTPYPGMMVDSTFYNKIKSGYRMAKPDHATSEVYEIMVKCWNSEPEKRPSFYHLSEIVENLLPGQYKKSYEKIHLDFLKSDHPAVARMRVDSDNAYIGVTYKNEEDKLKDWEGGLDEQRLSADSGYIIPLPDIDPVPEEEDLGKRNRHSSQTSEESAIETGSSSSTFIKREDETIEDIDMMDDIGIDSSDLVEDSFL
T4 sequence (P09619 554-1106 limits assumed): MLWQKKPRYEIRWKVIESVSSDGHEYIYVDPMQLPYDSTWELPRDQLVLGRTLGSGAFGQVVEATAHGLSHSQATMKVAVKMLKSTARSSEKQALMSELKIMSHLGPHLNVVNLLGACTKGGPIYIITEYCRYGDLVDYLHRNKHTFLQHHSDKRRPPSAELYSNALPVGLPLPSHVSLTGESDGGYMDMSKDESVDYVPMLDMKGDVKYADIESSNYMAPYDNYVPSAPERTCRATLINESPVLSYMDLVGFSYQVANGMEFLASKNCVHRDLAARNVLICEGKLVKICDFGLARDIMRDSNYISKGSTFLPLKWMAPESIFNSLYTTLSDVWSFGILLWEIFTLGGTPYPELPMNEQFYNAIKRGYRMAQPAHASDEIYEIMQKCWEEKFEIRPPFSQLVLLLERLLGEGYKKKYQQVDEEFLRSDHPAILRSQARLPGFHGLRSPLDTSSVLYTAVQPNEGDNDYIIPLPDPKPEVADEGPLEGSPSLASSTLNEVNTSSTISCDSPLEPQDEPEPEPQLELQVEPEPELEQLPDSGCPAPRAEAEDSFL
T1 sequence (P15056 457-717 V600E limits assumed): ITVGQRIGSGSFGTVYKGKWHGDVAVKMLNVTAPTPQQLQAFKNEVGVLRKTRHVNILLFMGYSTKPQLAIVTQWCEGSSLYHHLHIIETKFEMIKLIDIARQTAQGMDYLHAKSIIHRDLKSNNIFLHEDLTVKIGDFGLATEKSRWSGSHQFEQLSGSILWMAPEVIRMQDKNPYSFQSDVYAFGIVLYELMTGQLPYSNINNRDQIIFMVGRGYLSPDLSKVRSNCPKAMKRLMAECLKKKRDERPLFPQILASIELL

## CNc1nccc(Nc2cn3nc(Oc4cccc(NC(=O)c5cccc(C(F)(F)F)c5)c4)ccc3n2)n1 [Example 70, N-{3-[(2-{[2-(methylamino)pyrimidin-4-yl]amino}imidazo[1,2-b]pyridazin-6-yl)oxy]phenyl}-3-(trifluoromethyl)benzamide]
[1]
  inhibition at 1 µM: ≥ 90%

## COc1cc(C(=O)Nc2cc(Oc3ccc4nc(NC(=O)C5CC5)cn4n3)ccc2C)n(C)n1 [Example 302, N-[5-({2-[(cyclopropylcarbonyl)amino]imidazo[1,2-b]pyridazin-6-yl}oxy)-2-methylphenyl]-3-methoxy-1-methyl-1H-pyrazole-5-carboxamide]
[2]
  inhibition at 1 µM: ≥ 90%
[3]
  IC50: ≤ 500 nM
[4]
  IC50: ≤ 500 nM
[5]
  IC50: ≤ 500 nM

## CCc1nc(C)c(C(=O)Nc2cc(Oc3ccc4nc(NC(=O)C5CC5)cn4n3)ccc2F)o1 [Example 314, N-[5-({2-[(cyclopropylcarbonyl)amino]imidazo[1,2-b]pyridazin-6-yl}oxy)-2-fluorophenyl]-2-ethyl-4-methyl-1,3-oxazole-5-carboxamide]
[2]
  inhibition at 1 µM: ≥ 90%
[3]
  IC50: ≤ 500 nM
[4]
  IC50: ≤ 500 nM
[5]
  IC50: ≤ 500 nM

## Cc1cc(C(=O)Nc2cccc(Nc3ccc4nc(NC(=O)C5CC5)cn4n3)c2)n(C)n1 [Example 317, N-[3-({2-[(cyclopropylcarbonyl)amino]imidazo[1,2-b]pyridazin-6-yl}amino)phenyl]-1,3-dimethyl-1H-pyrazole-5-carboxamide]
[2]
  inhibition at 1 µM: ≥ 90%
[3]
  IC50: ≤ 500 nM
[4]
  IC50: ≤ 500 nM
[5]
  IC50: ≤ 500 nM

## O=C(Nc1cccc(Oc2ccc3nc(NC(=O)C4CC4)cn3n2)c1)c1cccc(C(F)(F)F)c1 [Example 319, N-[3-({2-[(cyclopropylcarbonyl)amino]imidazo[1,2-b]pyridazin-6-yl}oxy)phenyl]-3-(trifluoromethyl)benzamide]
[1]
  inhibition at 1 µM: ≥ 90%
